Data published in ChEMBL document CHEMBL4840329, “Antibiotic Dixiamycins from a Cold-Seep-Derived Streptomyces olivaceus” (2021).
Converted amounts (≈) assume the structure as drawn.

Tests used:
Staphylococcus aureus = assay: Anti-MDR bacterial activity against Staphylococcus aureus CCARM 3090 assessed as inhibition of bacterial growth incubated for 18 hrs by microplate reader analysis; format: functional
Enterococcus faecalis = assay: Anti-MDR bacterial activity against Enterococcus faecalis CCARM 5172 assessed as inhibition of bacterial growth incubated for 18 hrs by microplate reader analysis; format: functional
Enterococcus faecium = assay: Anti-MDR bacterial activity against Enterococcus faecium CCARM 5203 assessed as inhibition of bacterial growth incubated for 18 hrs by microplate reader analysis; format: functional
Micrococcus luteus = assay: Anti-MDR bacterial activity against Micrococcus luteus ML01 assessed as inhibition of bacterial growth incubated for 18 hrs by microplate reader analysis; format: functional
Pseudomonas aeruginosa = assay: Anti-MDR bacterial activity against Pseudomonas aeruginosa 15690 assessed as inhibition of bacterial growth incubated for 18 hrs by microplate reader analysis; format: functional
Escherichia coli = assay: Anti-MDR bacterial activity against Escherichia coli CCARM 1009 assessed as inhibition of bacterial growth incubated for 18 hrs by microplate reader analysis; format: functional
Salmonella typhimurium = assay: Anti-MDR bacterial activity against Salmonella typhimurium CCARM 8250 assessed as inhibition of bacterial growth incubated for 18 hrs by microplate reader analysis; format: functional, Salmonella enterica subsp. enterica serovar Typhimurium; conditions: Salmonella enterica
[1] = Staphylococcus aureus, CCARM 3090, 18 h, read-out: MIC
[2] = Enterococcus faecium, CCARM 5203, 18 h, read-out: MIC
[3] = Micrococcus luteus, ML01, 18 h, read-out: MIC
[4] = Enterococcus faecalis, CCARM 5172, 18 h, read-out: MIC
[5] = Pseudomonas aeruginosa, 15690, 18 h, read-out: MIC

C[C@@]1(C(=O)O)[C@@H](O)CC[C@]2(C)c3cc4c5ccccc5n(-n5c6ccccc6c6cc7c(cc65)CC[C@H]5[C@](C)(C(=O)O)[C@@H](O)CC[C@]75C)c4cc3CC[C@@H]12 (stereo in doubt; 5)
MIC (Staphylococcus aureus; [1]): 3.12 µg/mL (≈ 4.3 µM)
MIC (Enterococcus faecalis; 18 h): 6.25 µg/mL (≈ 8.62 µM)
MIC (Enterococcus faecium; [2]): 3.12 µg/mL (≈ 4.3 µM)
MIC (Micrococcus luteus; [3]): 6.25 µg/mL (≈ 8.62 µM)
MIC (Pseudomonas aeruginosa; 18 h): 3.12 µg/mL (≈ 4.3 µM)
MIC (Escherichia coli): > 12.5 µg/mL
MIC (Salmonella typhimurium): > 12.5 µg/mL

C[C@@]1(C(=O)O)[C@@H](O)CC[C@]2(C)c3cc4c5ccccc5n(-c5c6c(cc7c5[nH]c5ccccc57)[C@@]5(C)CC[C@H](O)[C@@](C)(C(=O)O)[C@@H]5CC6)c4cc3CC[C@@H]12 (stereo in doubt; 3)
MIC (Staphylococcus aureus; [1]): 6.25 µg/mL (≈ 8.62 µM)
MIC (Enterococcus faecalis; [4]): > 12.5 µg/mL
MIC (Enterococcus faecium; [2]): 12.5 µg/mL (≈ 17.2 µM)
MIC (Micrococcus luteus; [3]): > 12.5 µg/mL
MIC (Pseudomonas aeruginosa; [5]): 6.25 µg/mL (≈ 8.62 µM)
MIC (Escherichia coli): > 12.5 µg/mL
MIC (Salmonella typhimurium): > 12.5 µg/mL

C[C@@]1(C(=O)O)[C@@H](O)CC[C@]2(C)c3cc4c(cc3CC[C@@H]12)[nH]c1ccc(-n2c3ccccc3c3cc5c(cc32)CC[C@H]2[C@](C)(C(=O)O)[C@@H](O)CC[C@]52C)cc14
MIC (Staphylococcus aureus; [1]): 0.78 µg/mL (≈ 1.08 µM)
MIC (Enterococcus faecalis; [4]): 3.12 µg/mL (≈ 4.3 µM)
MIC (Enterococcus faecium; [2]): 1.56 µg/mL (≈ 2.15 µM)
MIC (Micrococcus luteus; [3]): 3.12 µg/mL (≈ 4.3 µM)
MIC (Pseudomonas aeruginosa; [5]): 0.78 µg/mL (≈ 1.08 µM)
MIC (Escherichia coli): > 12.5 µg/mL
MIC (Salmonella typhimurium): > 12.5 µg/mL

C[C@@]1(C(=O)O)[C@@H](O)CC[C@]2(C)c3cc4c(cc3CC[C@@H]12)[nH]c1ccc(S(=O)(=O)c2c3c(cc5c2[nH]c2ccccc25)[C@@]2(C)CC[C@H](O)[C@@](C)(C(=O)O)[C@@H]2CC3)cc14
MIC (Staphylococcus aureus; [1]): 12.5 µg/mL (≈ 15.8 µM)
MIC (Enterococcus faecalis; [4]): > 12.5 µg/mL
MIC (Enterococcus faecium; [2]): 6.25 µg/mL (≈ 7.92 µM)
MIC (Micrococcus luteus; [3]): > 12.5 µg/mL
MIC (Pseudomonas aeruginosa; [5]): > 12.5 µg/mL
MIC (Escherichia coli): > 12.5 µg/mL
MIC (Salmonella typhimurium): > 12.5 µg/mL

CN(C)[C@@H]1C(O)=C(C(N)=O)C(=O)[C@@]2(O)C(O)=C3C(=O)c4c(O)cccc4[C@@](C)(O)[C@H]3C[C@@H]12 [TETRACYCLINE]
MIC (Staphylococcus aureus; Staphylococcus aureus, CCARM 3090, read-out: MIC): 6.25 µg/mL (≈ 14.1 µM)
MIC (Enterococcus faecalis; [4]): > 25 µg/mL
MIC (Enterococcus faecium; [2]): 1.56 µg/mL (≈ 3.51 µM)
MIC (Micrococcus luteus; [3]): 6.25 µg/mL (≈ 14.1 µM)
MIC (Pseudomonas aeruginosa; [5]): 12.5 µg/mL (≈ 28.1 µM)
MIC (Escherichia coli): 1.56 µg/mL (≈ 3.51 µM)
MIC (Salmonella typhimurium): > 25 µg/mL

C[C@@]1(C(=O)O)[C@@H](O)CC[C@]2(C)c3cc4c5ccccc5n(-c5c6c(cc7c5[nH]c5ccccc57)[C@@]5(C)CC[C@H](O)[C@@](C)(C(=O)O)[C@@H]5CC6)c4cc3CC[C@@H]12 (stereo in doubt; 4)
MIC (Staphylococcus aureus; 18 h): >12.5 µg/mL
MIC (Enterococcus faecium; 18 h): >12.5 µg/mL
MIC (Pseudomonas aeruginosa; 18 h): >12.5 µg/mL

C[C@@]1(C(=O)O)[C@@H](O)CC[C@]2(C)c3cc4c(cc3CC[C@@H]12)[nH]c1c(-n2c3ccccc3c3cc5c(cc32)CC[C@H]2[C@](C)(C(=O)O)[C@@H](O)CC[C@]52C)cccc14 (stereo in doubt; 2)
MIC (Staphylococcus aureus; 18 h): 0.78 µg/mL (≈ 1.08 µM)
MIC (Enterococcus faecalis; 18 h): 3.12 µg/mL (≈ 4.3 µM)
MIC (Enterococcus faecium; 18 h): 3.12 µg/mL (≈ 4.3 µM)
MIC (Micrococcus luteus; 18 h): 3.12 µg/mL (≈ 4.3 µM)
MIC (Pseudomonas aeruginosa): 1.56 µg/mL (≈ 2.15 µM)

C[C@@]1(C(=O)O)[C@@H](O)CC[C@]2(C)c3cc4c(cc3CC[C@@H]12)[nH]c1c(-n2c3ccccc3c3cc5c(cc32)CC[C@H]2[C@](C)(C(=O)O)[C@@H](O)CC[C@]52C)cccc14 (stereo in doubt; 1)
MIC (Staphylococcus aureus; 18 h): 3.12 µg/mL (≈ 4.3 µM)
MIC (Enterococcus faecalis; 18 h): 6.25 µg/mL (≈ 8.62 µM)
MIC (Enterococcus faecium; 18 h): 6.25 µg/mL (≈ 8.62 µM)
MIC (Micrococcus luteus; 18 h): 6.25 µg/mL (≈ 8.62 µM)
MIC (Pseudomonas aeruginosa; [5]): 1.56 µg/mL (≈ 2.15 µM)
MIC (Escherichia coli): > 12.5 µg/mL
MIC (Salmonella typhimurium): > 12.5 µg/mL

C[C@@]1(C(=O)O)[C@@H](O)CC[C@]2(C)c3cc4c5ccccc5n(-n5c6ccccc6c6cc7c(cc65)CC[C@H]5[C@](C)(C(=O)O)[C@@H](O)CC[C@]75C)c4cc3CC[C@@H]12 (stereo in doubt; 6)
MIC (Staphylococcus aureus; 18 h): 1.56 µg/mL (≈ 2.15 µM)
MIC (Enterococcus faecalis; 18 h): 1.56 µg/mL (≈ 2.15 µM)
MIC (Enterococcus faecium; 18 h): 1.56 µg/mL (≈ 2.15 µM)
MIC (Micrococcus luteus): 6.25 µg/mL (≈ 8.62 µM)
MIC (Pseudomonas aeruginosa; 18 h): 0.78 µg/mL (≈ 1.08 µM)
